# According to ChEMBL document CHEMBL4229507, “Identification of influenza PA-Nter endonuclease inhibitors using pharmacophore- and docking-based virtual screening” (Bioorg Med Chem, 2018):
# What was measured:
# [1] = biological target: Polymerase acidic protein (Influenza A virus (strain A/X-31 H3N2), UniProt Q9IQ47); test: (§1) Inhibition of recombinant Influenza A virus (A/X-31(H3N2)) N-terminal 6xHis-tagged PA-Nter (1 to 217 residues) expressed in Escherichia coli BL21-CodonPlus cells using M13mp18 as substrate after 1 hr by ethidium bromide staining-based agarose gel electrophoresis
# [2] = test system: unidentified influenza virus; test: Antiviral activity against Influenza virus assessed as inhibition of viral transcription
# [3] = biological target: Polymerase acidic protein (Influenza A virus (strain A/X-31 H3N2)) (UniProt Q9IQ47); test: as §1
# Influenza A virus = test: Antiviral activity against Influenza A virus (A/Puerto Rico/8/1934(H1N1)) infected in MDCK cells after 24 hrs by immunofocus assay; assay type: functional, organism-based
Compound,IC50 [1] [µM],other results
O=C(O)C(=O)CC(=O)c1ccccc1,3.2,–
O=C(CCN1CCC(Cc2ccc(F)cc2)CC1)c1c[nH]c2cc(O)c(O)cc12,243,–
O=C(O)/C(O)=C/C(=O)C1(Cc2ccc(Cl)cc2)CCN(Cc2ccccc2)CC1,–,IC50 [2]: 0.43 µM
NS(=O)(=O)c1ccc(C(=O)NCCc2ccc(O)c(O)c2)cc1,12,inhibition [3]: Dose-dependent effect
O=C(C(=O)N1CCC(Cc2ccccc2)CC1)c1c[nH]c2cc(O)c(O)cc12,266,–
O=c1[nH]c(-c2ccc(F)cc2)c(-c2ccc(-c3nnn[nH]3)cc2)cc1O,–,EC50 (Influenza A virus): 11.4 µM
